The conditions of data set [1]: 293.15 K; 101.33 kPa; Liquid; Vibrating tube method.
Data set [2] can be described thus: refractive index (Na D-line) (dimensionless). To be noted: 293.15 K; 101.33 kPa; Liquid; Standard Abbe refractometry.

± gives the expanded uncertainty stated by the source.

As a reminder, the mass density is the mass of a sample divided by its volume. Usually refractive index stands for the speed of light in vacuum divided by its phase velocity in the sample. Turning to `COC1CCCC1` [methoxycyclopentane], in data set [1], the mass density worked out at 860.43 ± 0.12 kg/m3. Also, the refractive index in data set [2] came out at 1.4187 ± 0.0007.

`C=CC(=O)O` [propenoic acid]: the mass density in data set [1] was found to be 1051.22 ± 0.1 kg/m3. In addition, the refractive index in data set [2] was 1.4223 ± 0.0007.
